Values quoted from earlier work as cited in patent US20150272847A1, “Skin Engaging Shaving Aid Comprising A Thermally Resilient Sensate And A TRPA1 Receptor Inhibitor” (The Gillette Company, priority 2014, published 2015).

Conditions: compared to menthol at 2 ppm

CC(C)[C@@H]1CC[C@@H](C)C[C@H]1C(=O)Nc1ccc(CC#N)cc1 [N-[4-(cyanomethyl)phenyl]-(1R,2S,5R)-2-isopropyl-5-methylcyclohexanecarboxamide]
Cooling as compared to menthol: about 10 ×
